Laboratory results taken from patent EP4015509A1, “ORGANOMETALLIC COMPOUNDS AND THEIR USE AS MULTIMODAL CONTRASTING MEDIA FOR IMAGING DIAGNOSIS” (Justesa Imagen S.A.U, priority 2020, dated 2022).
In brackets after ≈: the same amount, converted by molar mass. Where two headings read alike, the source gives them in different places.

Experiments:
V79 fibroblast cultures = test: IC50 in vitro by cell viability measurement; format: cell-based
From the text: IC50 values were obtained by measuring cell viability in V79 fibroblast cultures as an alternative to animal experimentation. The values determined are summarized in the following table: Table 2: IC50 determination

[1] = biological target: T1, Bovine Serum Albumin (BSA) (Bos taurus, UniProt P02769); test: Albumin affinity test by equilibrium dialysis (RED plate), ICP-MS analysis; conditions: compound 0.25 mM, BSA 0.6 mM, HEPES buffer pH 7.4, five hours, 37 °C
Protocol: (§1) The albumin affinity test was carried out by in-vitro studies using Thermo Scientific™ "Single-Use RED Plate with 8K MWCO Inserts" 96-well plate, Bovine Serum Albumin (BSA) and HEPES. The technique of the devices is based on the process of equilibrium dialysis. The tests were carried out in a HEPES buffer with a pH of 7.4. In a typical test, following the manufacturer's measurement procedure, 400 µL of a solution containing the compound to be studied and BSA in concentrations of 0.25 mM and 0.6 mM respectively, in HEPES buffer, are added to the sample well. Additionally, 600 µL of HEPES buffer is added in the buffer well. After shaking the system for five hours at 300 rpm at a constant temperature of 37 °C, the concentration of the compound in each well is analysed. This analysis was performed using an Agilent ICP-MS (7900 Series) and with these concentration data the percentage of affinity of the studied compounds was determined.

[2] = Osmolality test with freezing point equipment; format: physicochemical; conditions: solutions at a concentration of 0.1 M
[3] = biological target: T1, Bovine Serum Albumin (BSA); conditions: 5 h, 0.25 mM, pH 7.4
Protocol: as §1

mice [4] = test: MRI imaging in a 7T animal magnetic resonance equipment; format: in vivo
Protocol: The test was carried out in a 7T animal magnetic resonance equipment by administering the contrast medium containing the compound (8) at a dose of 0.1 mmol/Kg to mice.

mice [5] = test: PET/CT imaging in an animal PET/CT scanner; format: in vivo; conditions: 130 µCi solution, gallium 68-labelled compound, Figure 7

T1 sequence (P02769 25-607): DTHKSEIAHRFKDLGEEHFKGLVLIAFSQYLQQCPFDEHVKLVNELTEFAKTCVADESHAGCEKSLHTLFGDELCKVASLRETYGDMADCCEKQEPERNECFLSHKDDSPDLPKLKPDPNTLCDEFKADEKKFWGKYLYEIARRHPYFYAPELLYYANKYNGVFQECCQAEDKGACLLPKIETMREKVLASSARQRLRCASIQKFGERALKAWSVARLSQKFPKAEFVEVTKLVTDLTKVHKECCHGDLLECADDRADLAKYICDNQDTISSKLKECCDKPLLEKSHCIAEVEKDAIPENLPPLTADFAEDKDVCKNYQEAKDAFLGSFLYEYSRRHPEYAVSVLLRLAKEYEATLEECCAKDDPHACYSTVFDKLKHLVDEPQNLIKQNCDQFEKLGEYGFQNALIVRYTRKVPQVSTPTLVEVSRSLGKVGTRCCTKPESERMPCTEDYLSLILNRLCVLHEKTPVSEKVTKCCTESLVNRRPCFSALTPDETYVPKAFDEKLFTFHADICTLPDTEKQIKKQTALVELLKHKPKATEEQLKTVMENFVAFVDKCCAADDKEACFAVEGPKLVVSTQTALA

Row | Compound | Osmolality (mOs/Kg) [2] [mOs/Kg] | IC50 (V79 fibroblast cultures) [mg/mL] | further results
1 | CC(=O)Nc1c(I)cc(I)c(C(=O)O)c1I [Acetrizoic acid, reference compound] | 258.47 | – | Albumin affinity (%) [3]: 39.16%; IC50 (V79 fibroblast cultures; read-out: IC50): 4.04 mg/mL (≈ 7.25 mM)
2 | Europium {10-{2-[2-(3-acetylamino-2,4,6-triiodophenylamino) aminoethyl]-2-oxoethyl}-1,4,7,10-tetraaza-1-cyclodecyl}-1,4,7-trioacetate [Compound (9)] | 125.12 | >75 | –
3 | Europium {10-{2-{2-[2-(3-Carboxy-2,4,6-triiodophenylamino)-2-oxoethylamino] aminoethyl}-2-oxoethyl}-1,4,7,10-tetraaza-1-cyclodododecyl}-1,4,7-triacetate [Compound (16)] | 148.12 | >75 | –
4 | Gadolinium {10-{2-[2-(3-acetylamino-2,4,6-triiodophenylamino) aminoethyl]-2-oxoethyl}-1,4,7,10-tetraaza-1-cyclodecyl}-1,4,7-triacetate [Compound (8)] | 117.58 | >75 | visualisation of the liver in MRI (mice [4]; additional study, MRI signal, figures 5 and 6): visualisation of the liver is possible; elimination route of the contrast medium (MRI) (mice [4]; mice, dose of 0.1 mmol/Kg, 7T MRI, figures 3 and 4): elimination via the kidneys

Second part, led by results:

Row | Osmolality (mOs/Kg) [2] [mOs/Kg] | Compound | IC50 (V79 fibroblast cultures) [mg/mL] | further results
5 | 93.33 | O=C([O-])CN1CCN(CC(=O)[O-])CCN([C@H](CO)[C@H](O)CO)CCN(CC(=O)[O-])CC1.[Gd+3] (racemic) [Gadobutrol, reference compound] | >75 | Albumin affinity (%) [1]: Not detectable
6 | 155.38 | Gadolinium {10-{2-{2-[2-(3-Carboxy-2,4,6-triiodophenylamino)-2-oxoethylamino] aminoethyl}-2-oxoethyl}-1,4,7,10-tetraaza-1-cyclodododecyl}-1,4,7-triacetate [Compound (15)] | >75 | –
7 | 123.43 | Gallium {10-{2-[2-(3-acetylamino-2,4,6-triiodophenylamino) aminoethyl]-2-oxoethyl}-1,4,7,10-tetraaza-1-cyclodecyl}-1,4,7-triacetate [Compound (7)] | 8.64 | organs differentiated in PET/CT images (mice [5]): heart, liver, kidneys and bladder are differentiated
8 | 150.42 | Gallium {10-{2-{2-[2-(3-Carboxy-2,4,6-triiodophenylamino)-2-oxoethylamino] aminoethyl}-2-oxoethyl}-1,4,7,10-tetraaza-1-cyclodododecyl}-1,4,7-triacetate [Compound (14)] | 10.12 | –
